Experimental data as given in patent US20240425490A1, “SULFAMIDE RIBONUCLEOTIDE REDUCTASE (RNR) INHIBITORS AND USES THEREOF” (Boundless Bio, Inc., priority 2021, published 2024).

Biological target: T1, RNR (RNR1:RNR2 1:1) (Homo sapiens, UniProt P23921)
T1 sequence (P23921 1-792): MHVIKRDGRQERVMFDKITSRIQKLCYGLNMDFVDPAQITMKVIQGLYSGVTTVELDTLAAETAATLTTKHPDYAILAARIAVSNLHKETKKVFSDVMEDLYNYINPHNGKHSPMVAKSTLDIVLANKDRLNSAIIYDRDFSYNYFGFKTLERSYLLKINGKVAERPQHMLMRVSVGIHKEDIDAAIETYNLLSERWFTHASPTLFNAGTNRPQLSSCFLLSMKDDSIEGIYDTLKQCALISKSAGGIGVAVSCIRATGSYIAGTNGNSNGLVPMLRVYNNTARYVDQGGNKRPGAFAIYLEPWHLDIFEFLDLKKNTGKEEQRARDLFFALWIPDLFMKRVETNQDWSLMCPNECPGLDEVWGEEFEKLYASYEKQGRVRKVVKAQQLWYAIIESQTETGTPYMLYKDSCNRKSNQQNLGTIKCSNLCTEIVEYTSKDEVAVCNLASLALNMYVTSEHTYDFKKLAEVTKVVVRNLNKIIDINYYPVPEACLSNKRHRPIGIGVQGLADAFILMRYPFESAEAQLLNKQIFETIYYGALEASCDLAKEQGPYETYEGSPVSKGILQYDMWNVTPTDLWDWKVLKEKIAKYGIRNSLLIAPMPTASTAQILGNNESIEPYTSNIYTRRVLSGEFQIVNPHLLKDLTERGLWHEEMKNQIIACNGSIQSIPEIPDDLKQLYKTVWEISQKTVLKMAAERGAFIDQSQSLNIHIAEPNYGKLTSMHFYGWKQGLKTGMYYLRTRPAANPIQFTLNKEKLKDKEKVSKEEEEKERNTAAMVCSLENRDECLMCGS
Test: RNR enzyme activity, rapid-fire mass spectrometry (RFMS) assay
Type: biochemical
Settings: RNR 50 nM, CDP 5 μM, ATP 1 mM, 37° C., 45 min, compounds screened up to 50 μM, read-out: RF/MS IC50
Description: A rapid-fire mass spectrometry (RFMS) assay was used to assess RNR enzyme activity using a 384 well plate and a robotic platform.
The plate layout included two validated reference compounds (Triapine (3-AP) and Hydroxyurea (HU)): • A dose response in duplicate; top concentration: 5 μM (3-AP) and 250 μM (HU), semi-log dilutions. • Spike wells in triplicate randomly spotted at four concentrations: • 250 μM, 100 μM, 30 μM and 2 μM for HU • 5 μM, 2 μM, 0.6 μM and 0.04 μM for 3-AP
First, the multidrop pipes were saturated for 30 minutes with enzymatic solution. Then 30 μL of Stop solution was distributed in column 24. Next, 15 μL of enzyme was distributed in column 1 to 24. Next, a pre-incubation step of 15 minutes at room temperature occurred, followed by distribution of 15 μL of substrate solution (column 1 to 24). Next, the plate was incubated for 45 minutes at 37° C. 30 μL of Stop solution was distributed to columns 1 to 23.
The final parameters for the enzyme reactions were: • Incubation: 37° C., 45 min • [CDP]: 5 μM; [ATP]: 1 mM; [NADPH]: No • [RNR] final: 50 nM with 1:1 (RNR1:RNR2) ratio • Final volume: 30 μL • Stop solution: 6% HCOOH containing 2 μM of 15

| SMILES | IC50 |
| --- | --- |
| Cc1ccc(F)c(C(C)[C@H](NS(=O)(=O)N2CCC3(CC2)COC(=O)O3)c2n[nH]c(=O)o2)c1C (stereo partly drawn) [Example 67, N-((1S)-2-(6-fluoro-2,3-dimethylphenyl)-1-(5-oxo-4,5-dihydro-1,3,4-oxadiazol-2-yl)propyl)-2-oxo-1,3-dioxa-8-azaspiro[4.5]decane-8-sulfonamide] | 10 to 100 µM |
| Cc1ccc(F)c([C@H](C)[C@H](NS(=O)(=O)N2CCC(Cl)CC2)c2n[nH]c(=O)o2)c1C [Example 6, 4-chloro-N-((1S,2S)-2-(6-fluoro-2,3-dimethylphenyl)-1-(5-oxo-4,5-dihydro-1,3,4-oxadiazol-2-yl)propyl)piperidine-1-sulfonamide] | 1 to 10 µM |
| Cc1ccc(F)c([C@@H](C)[C@H](NS(=O)(=O)N2CCC(C(C)C)CC2)c2n[nH]c(=O)o2)c1C [Example 38, N-((1S,2R)-2-(6-fluoro-2,3-dimethylphenyl)-1-(5-oxo-4,5-dihydro-1,3,4-oxadiazol-2-yl)propyl)-4-isopropylpiperidine-1-sulfonamide] | 10 to 100 µM |
| Cc1ccc(F)c([C@@H](C)[C@H](NS(=O)(=O)N2CCC[C@@](C)(O)C2)c2n[nH]c(=O)o2)c1C [Example 22, (R)-N-((1S,2R)-2-(6-fluoro-2,3-dimethylphenyl)-1-(5-oxo-4,5-dihydro-1,3,4-oxadiazol-2-yl)propyl)-3-hydroxy-3-methylpiperidine-1-sulfonamide] | 10 to 100 µM |
| Cc1ccc(F)c([C@@H](C)[C@H](NS(=O)(=O)N2CCC(F)(F)CC2)c2n[nH]c(=O)o2)c1C [Example 1, 4,4-difluoro-N-((1S,2R)-2-(6-fluoro-2,3-dimethylphenyl)-1-(5-oxo-4,5-dihydro-1,3,4-oxadiazol-2-yl)propyl)piperidine-1-sulfonamide] | 0.1 to 1 µM |
| Cc1ccc(F)c(C(C)[C@H](NS(=O)(=O)N2CCCCC2C#N)c2n[nH]c(=O)o2)c1C (stereo partly drawn) [Example 3, 2-cyano-N-[(1S)-2-(6-fluoro-2,3-dimethylphenyl)-1-(5-oxo-4H-1,3,4-oxadiazol-2-yl)propyl]piperidine-1-sulfonamide] | 1 to 10 µM |
| CC(=O)N(C)C1CCN(S(=O)(=O)N[C@H](c2n[nH]c(=O)o2)C(C)c2c(F)ccc(C)c2C)CC1 (stereo partly drawn) [Example 63, N-(1-(N-((1S)-2-(6-fluoro-2,3-dimethylphenyl)-1-(5-oxo-4,5-dihydro-1,3,4-oxadiazol-2-yl)propyl)sulfamoyl)piperidin-4-yl)-N-methylacetamide] | 1 to 10 µM |
| Cc1ccc(F)c([C@H](C)[C@H](NS(=O)(=O)N2CCC[C@](C)(O)C2)c2n[nH]c(=O)o2)c1C [Example 21, (S)-N-((1S,2S)-2-(6-fluoro-2,3-dimethylphenyl)-1-(5-oxo-4,5-dihydro-1,3,4-oxadiazol-2-yl)propyl)-3-hydroxy-3-methylpiperidine-1-sulfonamide] | 1 to 10 µM |
| Cc1ccc(F)c([C@@H](C)[C@H](NS(=O)(=O)N2CCC(Cl)CC2)c2n[nH]c(=O)o2)c1C [Example 5, 4-chloro-N-((1S,2R)-2-(6-fluoro-2,3-dimethylphenyl)-1-(5-oxo-4,5-dihydro-1,3,4-oxadiazol-2-yl)propyl)piperidine-1-sulfonamide] | 0.1 to 1 µM |
| Cc1ccc(F)c([C@H](C)[C@H](NS(=O)(=O)N2CCCCC2c2ccccc2)c2n[nH]c(=O)o2)c1C (stereo partly drawn) [Example 36, N-((1S,2S)-2-(6-fluoro-2,3-dimethylphenyl)-1-(5-oxo-4,5-dihydro-1,3,4-oxadiazol-2-yl)propyl)-2-phenylpiperidine-1-sulfonamide] | 10 to 100 µM |
| Cc1ccc(F)c([C@@H](C)[C@H](NS(=O)(=O)N2CC3CCCC(C3)C2)c2n[nH]c(=O)o2)c1C [Example 7, N-((1S,2R)-2-(6-fluoro-2,3-dimethylphenyl)-1-(5-oxo-4,5-dihydro-1,3,4-oxadiazol-2-yl)propyl)-3-azabicyclo[3.3.1]nonane-3-sulfonamide] | 10 to 100 µM |
| Cc1ccc(F)c([C@H](C)[C@H](NS(=O)(=O)N2CC3CCCC(C3)C2)c2n[nH]c(=O)o2)c1C [Example 42, N-((1S,2S)-2-(6-fluoro-2,3-dimethylphenyl)-1-(5-oxo-4,5-dihydro-1,3,4-oxadiazol-2-yl)propyl)-3-azabicyclo[3.3.1]nonane-3-sulfonamide] | 10 to 100 µM |

More lines, now with the values ahead:

| IC50 | SMILES |
| --- | --- |
| 1 to 10 µM | Cc1ccc(F)c([C@H](C)[C@H](NS(=O)(=O)N2CCC(C)CC2)c2n[nH]c(=O)o2)c1C [Example 116, N-((1S,2S)-2-(6-fluoro-2,3-dimethylphenyl)-1-(5-oxo-4,5-dihydro-1,3,4-oxadiazol-2-yl)propyl)-4-methylpiperidine-1-sulfonamide] |
| 0.1 to 1 µM | Cc1ccc(F)c(C(C)[C@H](NS(=O)(=O)N2CCN(C)CC2)c2n[nH]c(=O)o2)c1C (stereo partly drawn) [Example 139, N-((1S)-2-(6-fluoro-2,3-dimethylphenyl)-1-(5-oxo-4,5-dihydro-1,3,4-oxadiazol-2-yl)propyl)-4-methylpiperazine-1-sulfonamide] |
| 1 to 10 µM | Cc1ccc(F)c(C(C)[C@H](NS(=O)(=O)N2CCC(N3CCCC3=O)CC2)c2n[nH]c(=O)o2)c1C (stereo partly drawn) [Example 80, N-((1S)-2-(6-fluoro-2,3-dimethylphenyl)-1-(5-oxo-4,5-dihydro-1,3,4-oxadiazol-2-yl)propyl)-4-(2-oxopyrrolidin-1-yl)piperidine-1-sulfonamide] |
| 0.1 to 1 µM | Cc1ccc(F)c([C@@H](C)[C@H](NS(=O)(=O)N2CCc3ccccc3C2)c2n[nH]c(=O)o2)c1C [Example 135, N-((1S,2R)-2-(6-fluoro-2,3-dimethylphenyl)-1-(5-oxo-4,5-dihydro-1,3,4-oxadiazol-2-yl)propyl)-3,4-dihydroisoquinoline-2(1H)-sulfonamide] |
| 0.1 to 1 µM | Cc1ccc(F)c(C(C)[C@H](NS(=O)(=O)N2CCC(c3noc4ccc(F)cc34)CC2)c2n[nH]c(=O)o2)c1C (stereo partly drawn) [Example 74, N-((1S)-2-(6-fluoro-2,3-dimethylphenyl)-1-(5-oxo-4,5-dihydro-1,3,4-oxadiazol-2-yl)propyl)-4-(5-fluorobenzo[d]isoxazol-3-yl)piperidine-1-sulfonamide] |
| 1 to 10 µM | Cc1ccc(F)c([C@H](C)[C@H](NS(=O)(=O)N2CC(C)CC(C)C2)c2n[nH]c(=O)o2)c1C (stereo partly drawn) [Example 122, N-((1S,2S)-2-(6-fluoro-2,3-dimethylphenyl)-1-(5-oxo-4,5-dihydro-1,3,4-oxadiazol-2-yl)propyl)-3,5-dimethylpiperidine-1-sulfonamide] |
| 0.1 to 1 µM | Cc1ccc(F)c(C(C)[C@H](NS(=O)(=O)N2CCC3(CC2)OCc2ccccc23)c2n[nH]c(=O)o2)c1C (stereo partly drawn) [Example 73, N-((1S)-2-(6-fluoro-2,3-dimethylphenyl)-1-(5-oxo-4,5-dihydro-1,3,4-oxadiazol-2-yl)propyl)-3H-spiro[isobenzofuran-1,4′-piperidine]-1′-sulfonamide] |
| 1 to 10 µM | Cc1ccc(F)c(C(C)[C@H](NS(=O)(=O)N2CCC(c3ncc[nH]3)CC2)c2n[nH]c(=O)o2)c1C (stereo partly drawn) [Example 90, N-((1S)-2-(6-fluoro-2,3-dimethylphenyl)-1-(5-oxo-4,5-dihydro-1,3,4-oxadiazol-2-yl)propyl)-4-(1H-imidazol-2-yl)piperidine-1-sulfonamide] |
| 10 to 100 µM | Cc1ccc(F)c([C@H](C)[C@H](NS(=O)(=O)N2CCC3(CCCN(C)C3)CC2)c2n[nH]c(=O)o2)c1C [Example 84, N-((1S,2S)-2-(6-fluoro-2,3-dimethylphenyl)-1-(5-oxo-4,5-dihydro-1,3,4-oxadiazol-2-yl)propyl)-2-methyl-2,9-diazaspiro[5.5]undecane-9-sulfonamide] |
